Legend:
[1] = beagle; 200 mg indometacin farnesyl orally, formulated with the named additive
Experimental: In this test, the crossover method was employed by using six female beagles with the administration of 200 mg of indometacin farnesyl orally to each of them 30 min after breakfast, and sampling their blood at intervals to determine the concentration of indometacin farnesyl in their blood according to HPLC.
Six female beagles were used to determine indometacin farnesyl in the blood by the crossover method.
In the test, each sample was orally administered 30 min after breakfast and 2.5 ml of blood was sampled at intervals to determine the concentration of indometacin farnesyl under the HPLC conditions which will be described below.
The maximum blood concentration, Cmax (μg/ml), and the area under the blood concentration-time curve, AUC (μg hr/ml), 6 h after the administration of each of samples A to F were determined and expressed in terms of relative value with respect to those of a standard formulation.
stationary phase: Nucleosil®10 C18, 4.6 mm diameter×150mm
mobile phase: methanol/water (300/16)

[2] = cited from earlier work; for adverse reactions: clinical / reported in the literature
[3] = Rat lymph absorption test (lymph cannulation method, HPLC); format: in vivo; settings: SD rats, 12-week old; 5 mg/kg indometacin farnesyl orally, formulated with the named additive
Experimental: In this test, 5 mg/kg of indometacin farnesyl was orally administered to SD rats (12-week old) and indometacin farnesyl in the lymphatic vessels was determined according to HPLC by the lymph cannulation method.

| Compound | absorption of indometacin farnesyl (in words) [1] | adverse reactions [2] | absorption of indometacin farnesyl into lymph (in words) [3] | antiinflammatory effect ([2]; prior art statement) |
| --- | --- | --- | --- | --- |
| CCCCCCCC/C=C\CCCCCCCC(=O)O [oleic acid] | particularly excellent absorption |  |  |  |
| COc1ccc2c(c1)c(CC(=O)O)c(C)n2C(=O)c1ccc(Cl)cc1 [indometacin] |  | various adverse reactions such as gastrointestinal or renal disturbances |  |  |
| CCCCC/C=C\C/C=C\CCCCCCCC(=O)O [linolic acid] | particularly excellent absorption |  | particularly excellent absorption |  |
| COc1ccc2c(c1)c(CC(=O)OCC=C(C)CC/C=C(\C)CCC=C(C)C)c(C)n2C(=O)c1ccc(Cl)cc1 [indomethacin farnesyl, (6E)-3,7,11-trimethyl-2,6,10-dodecatrienyl 1-(p-chlorobenzoyl)-5-methoxy-2-methyl-lH-indole-3-acetate] |  | only slight adverse reactions |  | long-lasting antiinflammatory |

From patent US5139740A, “Polyprenyl compound composition for soft capsules” (Eisai Co., Ltd., priority 1989, dated 1992)
